Measurements from patent US11426467B2, “Dosage regimes for the administration of an anti-CD25 ADC” (ADC THERAPEUTICS SA, priority 2017, dated 2022).

Test: Steroid administration with ADC, toxicity symptoms reported by subjects
Type: in vivo
Details: steroid given with ADC dosage regimes

C[C@@H]1C[C@H]2[C@@H]3CCC4=CC(=O)C=C[C@]4(C)[C@@]3(F)[C@@H](O)C[C@]2(C)[C@@]1(O)C(=O)CO [dexamethasone, (8S,9R,10S,11S,13S,14S,16R,17R)-9-Fluoro-11,17-dihydroxy-17-(2-hydroxyacetyl)-10,13,16-trimethyl-6,7,8,9,10,11,12,13,14,15,16,17-dodecahydro-3H-cyclopenta[a]phenanthren-3-one]
frequency and/or severity of toxicity symptom reported by subjects: reduced the frequency and/or severity of toxicity symptom
